ChEMBL document CHEMBL1201862, “PubChem BioAssay data set” (2004)
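A five-concentration, 48-hour dose response in 96-well plates underlies each endpoint, interpolated linearly between surrounding concentrations. The concentration for 50% growth inhibition is given as GI50.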 The source made the active and inactive calls. Rule as the data show it: active = GI50 up to about 1.1 µM and inactive = higher.

What was measured:
Experiment in all cases: NCI-60 cell line screen, 48 h
DU-145 = tested on: DU-145
PC-3 = tested on: PC-3
NCI-H226 = tested on: NCI-H226
MOLT-4 = tested on: MOLT-4
786-0 = tested on: 786-0
NCI-H23 = tested on: NCI-H23
SNB-19 = tested on: SNB-19
A498 = tested on: A498
BT-549 = tested on: BT-549
Malme-3M = tested on: Malme-3M
TK-10 = tested on: TK-10
RXF 393 = tested on: RXF 393
HCT-15 = tested on: HCT-15
OVCAR-4 = tested on: OVCAR-4
HCT-116 = tested on: HCT-116
HL-60 = tested on: HL-60
T47D = tested on: T47D
COLO 205 = tested on: COLO 205
ACHN = tested on: ACHN
LOX IMVI = tested on: LOX IMVI
MDA-N = tested on: MDA-N
MDA-MB-231 = tested on: MDA-MB-231
NCI-H460 = tested on: NCI-H460
HOP-92 = tested on: HOP-92
OVCAR-5 = tested on: OVCAR-5
HOP-62 = tested on: HOP-62
MDA-MB-435 = tested on: MDA-MB-435
M14 = tested on: M14
SK-MEL-2 = tested on: SK-MEL-2
NCI/ADR-RES = tested on: NCI/ADR-RES
OVCAR-3 = tested on: OVCAR-3
Hs-578T = tested on: Hs-578T
SNB-75 = tested on: SNB-75
SW-620 = tested on: SW-620
CAKI-1 = tested on: CAKI-1
OVCAR-8 = tested on: OVCAR-8
CCRF-CEM = tested on: CCRF-CEM
HCC 2998 = tested on: HCC 2998
UACC-257 = tested on: UACC-257
HT-29 = tested on: HT-29
SF-539 = tested on: SF-539
SK-MEL-28 = tested on: SK-MEL-28
NCI-H522 = tested on: NCI-H522
UACC-62 = tested on: UACC-62
UO-31 = tested on: UO-31
K562 = tested on: K562
SF-295 = tested on: SF-295
SK-OV-3 = tested on: SK-OV-3
SF-268 = tested on: SF-268
SN12C = tested on: SN12C
RPMI-8226 = tested on: RPMI-8226
SK-MEL-5 = tested on: SK-MEL-5
A549 = tested on: A549
U-251 = tested on: U-251
IGROV-1 = tested on: IGROV-1
MCF7 = tested on: MCF7
SR = tested on: SR
EKVX = tested on: EKVX
KM12 = tested on: KM12

NCCCc1ccc2oc3ccccc3c2c1
GI50 (DU-145): 16.9 µM (inactive) | GI50 (PC-3): 18.7 µM (inactive) | GI50 (NCI-H226): 19.1 µM (inactive) | GI50 (MOLT-4): 11.8 µM (inactive) | GI50 (786-0): 13.7 µM (inactive) | GI50 (NCI-H23): 20.6 µM (inactive) | GI50 (SNB-19): 16 µM (inactive) | GI50 (A498): 16.1 µM (inactive) | GI50 (BT-549): 19.9 µM (inactive) | GI50 (Malme-3M): 17.5 µM (inactive) | GI50 (TK-10): 16.7 µM (inactive) | GI50 (RXF 393): 17.9 µM (inactive) | GI50 (HCT-15): 17.6 µM | GI50 (OVCAR-4): 19.9 µM (inactive) | GI50 (HCT-116): 15.3 µM (inactive) | GI50 (HL-60): 11.4 µM (inactive) | GI50 (T47D): 17.7 µM (inactive) | GI50 (COLO 205): 17.5 µM (inactive) | GI50 (ACHN): 17.5 µM (inactive) | GI50 (LOX IMVI): 18.5 µM (inactive) | GI50 (MDA-N): 15.6 µM (inactive) | GI50 (MDA-MB-231): 17.7 µM (inactive) | GI50 (NCI-H460): 17 µM (inactive) | GI50 (HOP-92): 20.4 µM (inactive) | GI50 (OVCAR-5): 12.7 µM (inactive) | GI50 (HOP-62): 17.6 µM (inactive) | GI50 (MDA-MB-435): 15.7 µM (inactive) | GI50 (M14): 15.8 µM (inactive) | GI50 (SK-MEL-2): 20.4 µM (inactive) | GI50 (NCI/ADR-RES): 22.3 µM (inactive) | GI50 (OVCAR-3): 17.2 µM (inactive) | GI50 (Hs-578T): 21.3 µM (inactive) | GI50 (SNB-75): 16.8 µM (inactive) | GI50 (SW-620): 18.9 µM (inactive) | GI50 (CAKI-1): 16.2 µM (inactive) | GI50 (OVCAR-8): 22.7 µM (inactive) | GI50 (CCRF-CEM): 11.6 µM (inactive) | GI50 (HCC 2998): 10.6 µM (inactive) | GI50 (UACC-257): 17.9 µM (inactive) | GI50 (HT-29): 12.6 µM (inactive) | GI50 (SF-539): 21.2 µM (inactive) | GI50 (SK-MEL-28): 17.8 µM (inactive) | GI50 (NCI-H522): 17.1 µM (inactive) | GI50 (UACC-62): 17.7 µM (inactive) | GI50 (UO-31): 15.8 µM (inactive) | GI50 (K562): 24.2 µM (inactive) | GI50 (SF-295): 18.5 µM (inactive) | GI50 (SK-OV-3): 17.1 µM (inactive) | GI50 (SF-268): 19.5 µM (inactive) | GI50 (SN12C): 17 µM (inactive) | GI50 (RPMI-8226): 26.4 µM (inactive) | GI50 (SK-MEL-5): 14.9 µM (inactive) | GI50 (A549): 17.1 µM (inactive) | GI50 (U-251): 18.7 µM (inactive) | GI50 (IGROV-1): 20.6 µM (inactive) | GI50 (MCF7): 18.7 µM (inactive) | GI50 (SR): 16.2 µM (inactive)

C(=N\NC1=NCCN1)/c1cccc2cc3ccncc3nc12
GI50 (DU-145): 7.23 µM (inactive) | GI50 (PC-3): 3.67 µM (inactive) | GI50 (NCI-H226): 8.28 µM (inactive) | GI50 (MOLT-4): 1.69 µM (inactive) | GI50 (786-0): 1.95 µM (inactive) | GI50 (NCI-H23): 11.5 µM (inactive) | GI50 (SNB-19): 9.53 µM (inactive) | GI50 (A498): 11.6 µM (inactive) | GI50 (BT-549): 16 µM (inactive) | GI50 (Malme-3M): 10.6 µM (inactive) | GI50 (TK-10): 10.4 µM (inactive) | GI50 (RXF 393): 2.77 µM (inactive) | GI50 (HCT-15): 3.4 µM | GI50 (OVCAR-4): 3.33 µM (inactive) | GI50 (HCT-116): 1.57 µM (inactive) | GI50 (HL-60): 1.04 µM (active) | GI50 (EKVX): 2.86 µM (inactive) | GI50 (T47D): 2.14 µM (inactive) | GI50 (COLO 205): 1.21 µM (inactive) | GI50 (ACHN): 2.84 µM (inactive) | GI50 (LOX IMVI): 1.73 µM (inactive) | GI50 (MDA-N): 2.89 µM (inactive) | GI50 (MDA-MB-231): 2.15 µM (inactive) | GI50 (NCI-H460): 4.36 µM (inactive) | GI50 (KM12): 5.73 µM (inactive) | GI50 (HOP-92): 1 µM (active) | GI50 (HOP-62): 6.22 µM (inactive) | GI50 (MDA-MB-435): 2.49 µM (inactive) | GI50 (M14): 12.6 µM (inactive) | GI50 (NCI/ADR-RES): 3.24 µM (inactive) | GI50 (OVCAR-3): 4.81 µM (inactive) | GI50 (Hs-578T): 3.94 µM (inactive) | GI50 (SNB-75): 0.259 µM (active) | GI50 (SW-620): 1.94 µM (inactive) | GI50 (CAKI-1): 2.84 µM (inactive) | GI50 (OVCAR-8): 1.93 µM (inactive) | GI50 (CCRF-CEM): 1.1 µM (active) | GI50 (HCC 2998): 5.71 µM (inactive) | GI50 (UACC-257): 9.89 µM (inactive) | GI50 (HT-29): 1.71 µM (inactive) | GI50 (SF-539): 5.85 µM (inactive) | GI50 (SK-MEL-28): 10.1 µM (inactive) | GI50 (NCI-H522): 3.33 µM (inactive) | GI50 (UACC-62): 3.43 µM (inactive) | GI50 (UO-31): 3.21 µM (inactive) | GI50 (K562): 1.36 µM (inactive) | GI50 (SF-295): 3.04 µM (inactive) | GI50 (SK-OV-3): 11.3 µM (inactive) | GI50 (SF-268): 3.85 µM (inactive) | GI50 (SN12C): 3.15 µM (inactive) | GI50 (RPMI-8226): 1.93 µM (inactive) | GI50 (SK-MEL-5): 9.51 µM (inactive) | GI50 (A549): 6.76 µM (inactive) | GI50 (U-251): 1.94 µM (inactive) | GI50 (IGROV-1): 3.24 µM (inactive) | GI50 (MCF7): 3.16 µM (inactive) | GI50 (SR): 1.08 µM (active)

CCCCc1c2c(c(C)c3c1C(=O)OC3)Oc1ccccc1O2
GI50 (DU-145): 2.51 µM (inactive) | GI50 (PC-3): 0.442 µM (active) | GI50 (NCI-H226): 2.8 µM (inactive) | GI50 (MOLT-4): 0.973 µM (active) | GI50 (786-0): 1.5 µM (inactive) | GI50 (NCI-H23): 2.9 µM (inactive) | GI50 (SNB-19): 3.95 µM (inactive) | GI50 (A498): 1.25 µM (inactive) | GI50 (BT-549): 6.46 µM (inactive) | GI50 (Malme-3M): 0.596 µM (active) | GI50 (TK-10): 2.29 µM (inactive) | GI50 (RXF 393): 0.975 µM (active) | GI50 (HCT-15): 0.708 µM | GI50 (OVCAR-4): 3.56 µM (inactive) | GI50 (HCT-116): 0.565 µM (active) | GI50 (HL-60): 0.316 µM (active) | GI50 (T47D): 5.11 µM (inactive) | GI50 (COLO 205): 0.855 µM (active) | GI50 (ACHN): 4.59 µM (inactive) | GI50 (LOX IMVI): 2.25 µM (inactive) | GI50 (MDA-N): 0.145 µM (active) | GI50 (MDA-MB-231): 2.57 µM (inactive) | GI50 (NCI-H460): 0.369 µM (active) | GI50 (KM12): 0.815 µM (active) | GI50 (HOP-92): 10.2 µM (inactive) | GI50 (OVCAR-5): > 27.5 µM (inactive) | GI50 (HOP-62): 1.23 µM (inactive) | GI50 (MDA-MB-435): 0.173 µM (active) | GI50 (M14): 1.22 µM (inactive) | GI50 (SK-MEL-2): 0.541 µM (active) | GI50 (NCI/ADR-RES): 0.382 µM (active) | GI50 (OVCAR-3): 0.274 µM (active) | GI50 (Hs-578T): 0.628 µM (active) | GI50 (SNB-75): 0.562 µM (active) | GI50 (SW-620): 1.02 µM (active) | GI50 (CAKI-1): 5.74 µM (inactive) | GI50 (OVCAR-8): 3.67 µM (inactive) | GI50 (CCRF-CEM): 0.695 µM (active) | GI50 (HCC 2998): 0.646 µM (active) | GI50 (UACC-257): 0.428 µM (active) | GI50 (SF-539): 0.608 µM (active) | GI50 (SK-MEL-28): > 63.2 µM (inactive) | GI50 (NCI-H522): 0.217 µM (active) | GI50 (UACC-62): 0.535 µM (active) | GI50 (UO-31): 5.77 µM (inactive) | GI50 (K562): 0.379 µM (active) | GI50 (SF-295): 0.467 µM (active) | GI50 (SK-OV-3): 1.57 µM (inactive) | GI50 (SF-268): 1.64 µM (inactive) | GI50 (SN12C): 1.85 µM (inactive) | GI50 (RPMI-8226): 1.25 µM (inactive) | GI50 (SK-MEL-5): 0.478 µM (active) | GI50 (A549): 1.73 µM (inactive) | GI50 (U-251): 0.57 µM (active) | GI50 (IGROV-1): 0.608 µM (active) | GI50 (MCF7): 1.63 µM (inactive) | GI50 (SR): 0.186 µM (active)
